Measurements as given in ChEMBL document CHEMBL1127865, “C-linked pyrazole biaryl tetrazoles as antagonists of angiotensin II Part II: pharmacokinetics and an efficient regioselective synthesis” (Bioorg Med Chem Lett, 1994).

Columns and labels:
Format in all cases: ADME, organism-based
[1] = Compound was evaluated for plasma clearance in rat; conditions: read-out: Clp
[2] = Compound was evaluated for plasma half life in rat
[3] = Oral bioavailability in rat; conditions: in vivo
[4] = Compound was evaluated for volume of distribution in rat; conditions: in vivo

Row | SMILES | clearance [1] [mL/min/kg] | half-life [2] [min] | bioavailability [3] [%] | Vd [4] [L/kg]
1 | CCCCc1nn(CCCC)c(C(=O)O)c1Cc1ccc(-c2ccccc2-c2nn[nH]n2)cc1 | 0.12 | 888 | 26 | 0.16
2 | CCCCc1nn(CC2CC2)c(C(=O)O)c1Cc1ccc(-c2ccccc2-c2nn[nH]n2)cc1 | 0.2 | 738 | 58 | 0.2
